# Source: PubChem BioAssay AID330 (DTP/NCI, 2004)
# “And” between values parts separate entries of the source, which are not always exact repeats. Equal values may be shown once. Toxic doses and inconclusive results are not listed.
# Tested on: P388 leukemia ip, CD2F1 mice, survival T/C
# Assay: NCI In Vivo Anticancer Drug Screen. Data for tumor model P388 Leukemia (intraperitoneal) in CD2F1 (CDF1) mice
# Conditions: endpoint: median survival time, higher = longer survival
# Procedure, shortened: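 Mice carrying the transplanted tumor received test compound or vehicle. Survival was recorded in each group, and the value is the treated-group measurement divided by that of the vehicle-treated control group.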
# [1] = dose: 25.0 mg/kg/injection, schedule: Q01DX005 (ip), vehicle: Klucel (hydroxypropylcellulose) (HPC)
# [2] = dose: 50.0 mg/kg/injection, schedule: Q01DX005 (ip), vehicle: Klucel (hydroxypropylcellulose) (HPC)
# [3] = dose: 100.0 mg/kg/injection, schedule: Q01DX005 (ip), vehicle: Klucel (hydroxypropylcellulose) (HPC)
# [4] = dose: 50.0 mg/kg/injection, schedule: Q01DX009 (ip), vehicle: saline with Tween-80
# [5] = dose: 100.0 mg/kg/injection, schedule: Q01DX009 (ip), vehicle: saline with Tween-80
# [6] = dose: 200.0 mg/kg/injection, schedule: Q01DX009 (ip), vehicle: saline with Tween-80
# [7] = dose: 60.0 mg/kg/injection, schedule: Q01DX005 (ip), vehicle: saline with Tween-80
# [8] = dose: 120.0 mg/kg/injection, schedule: Q01DX005 (ip), vehicle: saline with Tween-80
# [9] = dose: 5.0 mg/kg/injection, schedule: Q01DX009 (ip), vehicle: saline
# [10] = dose: 6.25 mg/kg/injection, schedule: Q01DX009 (ip), vehicle: saline
# [11] = dose: 10.0 mg/kg/injection, schedule: Q01DX009 (ip), vehicle: saline
# [12] = dose: 12.5 mg/kg/injection, schedule: Q01DX009 (ip), vehicle: saline
# [13] = dose: 20.0 mg/kg/injection, schedule: Q01DX009 (ip), vehicle: saline
# [14] = dose: 50.0 mg/kg/injection, schedule: Q01DX009 (ip), vehicle: saline
# [15] = dose: 200.0 mg/kg/injection, schedule: Q01DX005 (ip), vehicle: Klucel (hydroxypropylcellulose) (HPC)
# [16] = dose: 240.0 mg/kg/injection, schedule: Q01DX005 (ip), vehicle: saline with Tween-80
# [17] = dose: 50.0 mg/kg/injection, schedule: Q01DX005 (ip), vehicle: saline
# [18] = dose: 100.0 mg/kg/injection, schedule: Q01DX005 (ip), vehicle: saline
# [19] = dose: 100.0 mg/kg/injection, schedule: Q04DX002 (ip), vehicle: saline with Tween-80
# [20] = dose: 200.0 mg/kg/injection, schedule: Q04DX002 (ip), vehicle: saline with Tween-80
# [21] = dose: 400.0 mg/kg/injection, schedule: Q04DX002 (ip), vehicle: saline with Tween-80
# [22] = dose: 12.5 mg/kg/injection, schedule: Q01DX009 (ip), vehicle: saline with Tween-80
# [23] = dose: 100.0 mg/kg/injection, schedule: Q01DX009 (ip), vehicle: saline
# [24] = dose: 200.0 mg/kg/injection, schedule: Q01DX009 (ip), vehicle: saline
structure (smiles),measurement,setting,value
CC(=O)CC(C)=NCC(C)N=C(C)CC(C)=O (stereo not given),T/C,"dose: 100.0 mg/kg/injection, schedule: Q04DX003 (ip), vehicle: saline",100 % of control
same,T/C,"dose: 200.0 mg/kg/injection, schedule: Q04DX003 (ip), vehicle: saline",100 % of control
same,T/C,"dose: 400.0 mg/kg/injection, schedule: Q04DX003 (ip), vehicle: saline",100 % of control
CC1=C(S(=O)(=O)c2ccccc2)C(c2ccccc2)N(C)O1 (stereo not given),T/C,"dose: 60.0 mg/kg/injection, schedule: Q01DX005 (ip), vehicle: Klucel (hydroxypropylcellulose) (HPC)",102 % of control
same,T/C,"dose: 120.0 mg/kg/injection, schedule: Q01DX005 (ip), vehicle: Klucel (hydroxypropylcellulose) (HPC)",103 % of control
same,T/C,"dose: 240.0 mg/kg/injection, schedule: Q01DX005 (ip), vehicle: Klucel (hydroxypropylcellulose) (HPC)",98 % of control
CCCCN(CCCC)CCNc1ccc(C)c2sc3cc(Cl)ccc3c(=O)c12,T/C,"dose: 12.5 mg/kg/injection, schedule: Q01DX005 (ip), vehicle: Klucel (hydroxypropylcellulose) (HPC)",95 % of control
same,T/C,[1],101 % of control
same,T/C,[2],99 % of control and 101 % of control
same,T/C,[3],96 % of control
O=S(=O)(O)C(Nc1cccc(Cl)c1)c1ccccc1 (stereo not given),T/C,[4],97 % of control
same,T/C,[5],95 % of control
same,T/C,[6],103 % of control
N=Cc1cc([N+](=O)[O-])ccc1O,T/C,[7],105 % of control
same,T/C,[8],104 % of control
CCC1CN2C(=N1)c1ccccc1-c1cc(Cl)ccc12 (stereo not given),T/C,[9],106 % of control
same,T/C,[10],101 % of control and 102 % of control and 90 % of control
same,T/C,[11],121 % of control and 124 % of control
same,T/C,[12],103 % of control and 106 % of control and 97 % of control
same,T/C,[13],117 % of control
same,T/C,"dose: 25.0 mg/kg/injection, schedule: Q01DX009 (ip), vehicle: saline",101 % of control (2×) and 108 % of control
same,T/C,"dose: 40.0 mg/kg/injection, schedule: Q01DX009 (ip), vehicle: saline",156 % of control
same,T/C,[14],103 % of control and 123 % of control and 94 % of control
Nc1cccc(NCc2ccccn2)n1,T/C,[2],101 % of control
same,T/C,[3],104 % of control
C/C(C=O)=C\c1ccc2c(c1)OCO2,T/C,[2],104 % of control
same,T/C,[3],97 % of control
same,T/C,[15],106 % of control
COc1ccc(CCN2C(=O)CCC3=C2CCCC3=O)cc1OC,T/C,[1],102 % of control
same,T/C,[2],100 % of control
same,T/C,[3],102 % of control
same,T/C,[15],100 % of control
Cc1ccc2c(c1)sc(C)[n+]2CCO,T/C,[7],100 % of control
same,T/C,[8],101 % of control
same,T/C,[16],101 % of control
CCOC1=N[C@H](C)[C@H](C)N1,T/C,[17],100 % of control
same,T/C,[18],103 % of control
CCOc1cccc2c1C(=O)c1cccc(OCC)c1C2(O)C#Cc1ccccc1 (stereo not given),T/C,[19],90 % of control
same,T/C,[20],87 % of control
same,T/C,[21],86 % of control
C=CCC(CC1CC2CCCCN2O1)OCc1ccccc1 (stereo not given),T/C,"dose: 100.0 mg/kg/injection, schedule: Q04DX003 (ip), vehicle: saline with Tween-80",101 % of control
same,T/C,"dose: 200.0 mg/kg/injection, schedule: Q04DX003 (ip), vehicle: saline with Tween-80",105 % of control
same,T/C,"dose: 400.0 mg/kg/injection, schedule: Q04DX003 (ip), vehicle: saline with Tween-80",104 % of control
Clc1ccccc1CN1COc2c(cc(Cl)c3cccnc23)C1,T/C,"dose: 100.0 mg/kg/injection, schedule: Q04DX003 (ip), vehicle: Klucel (hydroxypropylcellulose) (HPC)",95 % of control
same,T/C,"dose: 200.0 mg/kg/injection, schedule: Q04DX003 (ip), vehicle: Klucel (hydroxypropylcellulose) (HPC)",95 % of control
same,T/C,"dose: 400.0 mg/kg/injection, schedule: Q04DX003 (ip), vehicle: Klucel (hydroxypropylcellulose) (HPC)",95 % of control
C/C(O)=C(/N=Nc1ccc(-c2nc3ccc(C)c(S(=O)(=O)O)c3s2)cc1)C(=O)Nc1ccccc1,T/C,"dose: 6.25 mg/kg/injection, schedule: Q01DX009 (ip), vehicle: saline with Tween-80",104 % of control
same,T/C,[22],95 % of control
same,T/C,"dose: 25.0 mg/kg/injection, schedule: Q01DX009 (ip), vehicle: saline with Tween-80",96 % of control
CC1SC2(C(=O)Nc3ccc([N+](=O)[O-])cc32)N(c2ccc(Cl)cc2)C1=O (stereo not given),T/C,[7],91 % of control
same,T/C,[8],91 % of control
same,T/C,[16],91 % of control
CCOC(=O)CCN1CC=CCC1,T/C,[17],105 % of control
same,T/C,[18],102 % of control
same,T/C,"dose: 200.0 mg/kg/injection, schedule: Q01DX005 (ip), vehicle: saline",102 % of control
CC1(C)NC1C(O)c1ccccc1 (stereo not given),T/C,[14],102 % of control
same,T/C,[23],103 % of control
same,T/C,[24],104 % of control
COC(=O)CC1C=CC(OC)[C@@]2(C)C(=O)C=C(C)C(=O)[C@@H]12 (stereo not given in full),T/C,[7],110 % of control
same,T/C,[8],106 % of control
same,T/C,[16],106 % of control
COC1/C=C/OC2(C)Oc3c(C)c(O)c4c(O)c(c(/C=N/N5CC(C)(C)N(Cc6ccccc6)CC5(C)C)c(O)c4c3C2=O)NC(=O)C(C)=C/C=C/C(C)C(O)C(C)C(O)C(C)C(OC(C)=O)C1C (stereo not given),T/C,[4],107 % of control
same,T/C,[5],118 % of control
COc1ccc(C2c3cc4c(cc3OC(C)(OC)C2C)OCO4)c(OC)c1 (stereo not given),T/C,"dose: 50.0 mg/kg/injection, schedule: Q01DX005 (ip), vehicle: saline with Tween-80",88 % of control
same,T/C,"dose: 100.0 mg/kg/injection, schedule: Q01DX005 (ip), vehicle: saline with Tween-80",88 % of control
same,T/C,"dose: 200.0 mg/kg/injection, schedule: Q01DX005 (ip), vehicle: saline with Tween-80",91 % of control
COc1cccc2c1C(=O)c1ccccc1-2,T/C,[2],102 % of control
same,T/C,[3],102 % of control
same,T/C,[15],91 % of control
Cc1cc(N(CCCl)CCCl)ccc1CN1CCCN(Cc2ccc(N(CCCl)CCCl)cc2C)C1c1ccccc1O,T/C,[22],123 % of control
CNc1c(NC)n(C)c(=O)n(C)c1=O,T/C,[4],90 % of control
same,T/C,[14],109 % of control
same,T/C,[5],105 % of control and 97 % of control
same,T/C,[23],109 % of control
same,T/C,[6],121 % of control and 97 % of control
same,T/C,[24],106 % of control
same,T/C,"dose: 400.0 mg/kg/injection, schedule: Q01DX009 (ip), vehicle: saline with Tween-80",100 % of control and 112 % of control
O=C(NC(=O)C1CCC(=O)N1Cc1ccccc1)NC1CCC(=O)N1Cc1ccccc1 (stereo not given),T/C,[7],96 % of control
same,T/C,[8],94 % of control
COc1ccc(C2C3CCN2CC3)cc1 (stereo not given),T/C,[10],111 % of control
same,T/C,[12],109 % of control
Nc1nc(-c2ccccc2)nc(-c2ccccc2)n1,T/C,"dose: 2.5 mg/kg/injection, schedule: Q01DX009 (ip), vehicle: saline",104 % of control
same,T/C,"dose: 3.12 mg/kg/injection, schedule: Q01DX009 (ip), vehicle: saline",95 % of control
same,T/C,"dose: 3.12 mg/kg/injection, schedule: Q01DX009 (ip), vehicle: suspension in saline",100 % of control and 97 % of control
same,T/C,[9],104 % of control
same,T/C,[10],92 % of control
same,T/C,[11],100 % of control
same,T/C,[12],89 % of control
same,T/C,"dose: 12.5 mg/kg/injection, schedule: Q01DX009 (ip), vehicle: suspension in saline",93 % of control and 98 % of control
same,T/C,[13],100 % of control
same,T/C,"dose: 25.0 mg/kg/injection, schedule: Q01DX009 (ip), vehicle: suspension in saline",90 % of control and 98 % of control
CCOC(=O)c1sc(SSc2sc(C(=O)OCC)c(-c3ccccc3)c2[N+](=O)[O-])c([N+](=O)[O-])c1-c1ccccc1,T/C,[19],104 % of control
same,T/C,[20],107 % of control
same,T/C,[21],118 % of control
CC1(C)N=C(N)N=C(N)N1c1cccc(CC(=O)Nc2ccccc2)c1,T/C,"dose: 12.5 mg/kg/injection, schedule: Q01DX009 (ip), vehicle: saline sonified",95 % of control
same,T/C,"dose: 12.5 mg/kg/injection, schedule: Q04DX003 (ip), vehicle: saline with Tween-80",109 % of control
same,T/C,"dose: 25.0 mg/kg/injection, schedule: Q01DX009 (ip), vehicle: saline sonified",95 % of control
same,T/C,"dose: 25.0 mg/kg/injection, schedule: Q04DX003 (ip), vehicle: saline with Tween-80",104 % of control
same,T/C,"dose: 50.0 mg/kg/injection, schedule: Q01DX009 (ip), vehicle: saline sonified",90 % of control
same,T/C,"dose: 50.0 mg/kg/injection, schedule: Q04DX003 (ip), vehicle: saline with Tween-80",109 % of control
